From US9605000B2, “Spiro azetidine isoxazole derivatives and their use as SSTR antagonists” (Takeda Pharmaceutical Company Limited, priority 2013, dated 2017) come the findings set out here.

The experiment concerns the target T1, human SSTR5 (Homo sapiens, UniProt P35346).
T1 construct: expressed in transfected cells
Put plainly: Human SSTR5 antagonist activity using intracellular cAMP concentration as indicator (somatostatin 28, Test Example 2). The format is cell-based. The conditions noted are these: 1 μM test compound; somatostatin 28 and 0.3 μM forskolin; CHO (dhfr-) cells expressing human SSTR5; HTRF cAMP; read-out: Inhibition rate (%) with respect to SSTR5 in concentration of 1 μM. How it is done: Evaluation of Human SSTR5 Antagonist Activity Using an Intracellular cAMP Concentration as an Indicator
Measurement of the intracellular cAMP concentration was performed using a HTRF cAMP dynamic 2 kit (manufactured by Cisbio). A test compound which was diluted with an assay buffer (5 mM HEPES (pH 7.5) (manufactured by Invitrogen Corp.), 0.1% fatty-acid free BSA (manufactured by Sigma-Aldrich, Inc.), HBSS (manufactured by Invitrogen Corp.) containing 500 μM IBMX (manufactured by Wako Pure Chemical Industries, Ltd) was added by 2 μL/well to a 384 well white plate (manufactured by Greiner) such that a final concentration become 1 μM. A frozen stock, which was stably expressed dihydrofolate reductase-deficient CHO (dhfr-) cells in which human SSTR5 gene (Accession No. NM001053) was melted in a thermostatic chamber at 37° C., and it was suspended on a medium of subculture (medium prepared from MEM alpha (manufactured by Wako Pure Chemical Industries, Ltd.), 10% dialyzed serum (manufacture by Gemini Co., Ltd.) and 50 μg/mL gentamicin (manufactured by Invitrogen Corp.). After centrifuging the cell suspension, the cell suspension was resuspended using the assay buffer, and the resultant was added to each well by 2 μL/well to be 4000 cells/well. After a test compound and cells were incubated for 15 minutes. An assay buffer which contains 0.1 nM of somatostatin 28 (manufactured by Toray Research Center) and 0.3 μM of forskolin (manufactured by Wako Pure Chemical Industries, Ltd) as a final concentration was added by […], and incubation was performed for 30 minutes at room temperature. Each of cAMP-d2 and anti-cAMP-cryptate was added by 3 μL/well, it was allowed to stand for 60 minutes at room temperature, and FRET (Fluorescence resonance energy transfer) intensity was measured using Multi-label reader Envision (manufactured by Perkin Elmer Inc.). Using the calibration curve prepared from the FRET intensity of well groups in which cAMP as arbitrary concentration was added to an assay buffer, FRET intensity of wells in which a test compound group was added was converted into cAMP concentration. Inhibitory activity of compounds was calculated using the following equation. Inhibitory activity (%)=(C−B)/(A−B)×100 A: cAMP concentration calculated from wells in which 0.3 μM of forskolin is added B: cAMP concentration calculated from wells in which 0.3 μM of forskolin and 1 nM of somatostatin 28 are added C: cAMP concentration wells in which 0.3 μM of forskolin, 1 nM of somatostatin 28 and 1 μM of test compound are added
Inhibition rates (%) are described in Table 3 with respect to SSTR5 in concentration of 1 μM of a test compound.
On the technique in general: TR-FRET usually uses a lanthanide donor and a delayed reading to cut background.

T1 sequence (P35346 whole entry): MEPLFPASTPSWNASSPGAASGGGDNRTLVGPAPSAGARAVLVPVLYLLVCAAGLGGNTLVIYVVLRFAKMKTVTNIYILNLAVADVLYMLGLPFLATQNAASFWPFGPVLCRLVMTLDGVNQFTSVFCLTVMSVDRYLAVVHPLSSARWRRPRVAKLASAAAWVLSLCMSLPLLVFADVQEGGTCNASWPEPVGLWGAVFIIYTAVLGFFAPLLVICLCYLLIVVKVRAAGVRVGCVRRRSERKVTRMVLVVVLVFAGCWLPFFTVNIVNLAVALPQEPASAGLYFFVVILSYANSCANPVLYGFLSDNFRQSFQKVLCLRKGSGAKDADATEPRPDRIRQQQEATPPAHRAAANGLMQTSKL

On to `CC(C)Oc1cc(C2CC2)c(C2CC2)cc1CN1CC2(CC(N3CCC(C)(C(=O)O)CC3)=NO2)C1` [Example 248, 1-(2-(4,5-Dicyclopropyl-2-isopropoxybenzyl)-5-oxa-2,6-diazaspiro[3.4]oct-6-en-7-yl)-4-methylpiperidine-4-carboxylic acid], for which the inhibition at 1 µM was determined as 102%. The figure for `CCC1(C(=O)O)CCN(C2=NOC3(C2)CN(Cc2cc(C4CC4)c(-c4ccc(F)cc4F)c(Cl)c2OC)C3)CC1` [Example 262, 1-(2-((2-Chloro-6-cyclopropyl-2′,4′-difluoro-3-methoxybiphenyl-4-yl)methyl)-5-oxa-2,6-diazaspiro[3.4]oct-6-en-7-yl)-4-ethylpiperidine-4-carboxylic acid] is 100%; for `CCOc1c(CN2CC3(CC(N4CCC(C)(C(=O)O)CC4)=NO3)C2)cc(C2CC2)c(C2CC2)c1F` [Example 257, 1-(2-(4,5-Dicyclopropyl-2-ethoxy-3-fluorobenzyl)-5-oxa-2,6-diazaspiro[3.4]oct-6-en-7-yl)-4-methylpiperidine-4-carboxylic acid] it is 117%; for `COc1c(CN2CC3(CC(N4CCC(C)(C(=O)O)CC4)=NO3)C2)cc(C2CC2)c(-c2ccc(F)cc2F)c1Cl` [Example 258, 1-(2-((2-Chloro-6-cyclopropyl-2′,4′-difluoro-3-methoxybiphenyl-4-yl)methyl)-5-oxa-2,6-diazaspiro[3.4]oct-6-en-7-yl)-4-methylpiperidine-4-carboxylic acid] it is 124%. Take `CCOc1cc(C2CC2)c(C2CC2)cc1CN1CC2(CC(N3CCC(C)(C(=O)O)CC3)=NO2)C1` [Example 250, 1-(2-(4,5-Dicyclopropyl-2-ethoxybenzyl)-5-oxa-2,6-diazaspiro[3.4]oct-6-en-7-yl)-4-methylpiperidine-4-carboxylic acid]: the inhibition at 1 µM was 98%.

As for `CC(C)Oc1c(CN2CC3(CC(N4CCC(C)(C(=O)O)CC4)=NO3)C2)cc(C2CC2)c(C2CC2)c1F` [Example 256, 1-(2-(4,5-Dicyclopropyl-3-fluoro-2-isopropoxybenzyl)-5-oxa-2,6-diazaspiro[3.4]oct-6-en-7-yl)-4-methylpiperidine-4-carboxylic acid], the inhibition at 1 µM was found to be 121%. In the case of `CCOc1c(CN2CC3(CC(N4CCC(C)(C(=O)O)CC4)=NO3)C2)cc(C2CC2)c(-c2ccc(F)cc2)c1Cl` [Example 239, 1-(2-((2-Chloro-6-cyclopropyl-3-ethoxy-4′-fluorobiphenyl-4-yl)methyl)-5-oxa-2,6-diazaspiro[3.4]oct-6-en-7-yl)-4-methylpiperidine-4-carboxylic acid], the inhibition at 1 µM amounted to 94%. On to `COc1c(CN2CC3(CC(N4CCC(C(=O)O)CC4)=NO3)C2)cc(C2CC2)c(-c2ccc(F)cc2)c1F` [Example 266, 1-(2-((6-Cyclopropyl-2,4′-difluoro-3-methoxybiphenyl-4-yl)methyl)-5-oxa-2,6-diazaspiro[3.4]oct-6-en-7-yl)piperidine-4-carboxylic acid], for which the inhibition at 1 µM came out at 88%. Consider `COc1c(CN2CC3(CC(N4CCC(C)(C(=O)O)CC4)=NO3)C2)cc(C2CC2)c(-c2ccc(F)cc2F)c1F` [Example 259, 1-(2-((6-Cyclopropyl-2,2′,4′-trifluoro-3-methoxybiphenyl-4-yl)methyl)-5-oxa-2,6-diazaspiro[3.4]oct-6-en-7-yl)-4-methylpiperidine-4-carboxylic acid], for which the inhibition at 1 µM came out at 90%. Take `CCOc1c(CN2CC3(CC(N4CCC(C(=O)O)CC4)=NO3)C2)cc(C2CC2)c(-c2ccc(F)cc2)c1F` [Example 261, 1-(2-((6-Cyclopropyl-3-ethoxy-2,4′-difluorobiphenyl-4-yl)methyl)-5-oxa-2,6-diazaspiro[3.4]oct-6-en-7-yl)piperidine-4-carboxylic acid]: the inhibition at 1 µM is 92%.
